# Results: PubChem BioAssay (NCI)
#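 All cell lines were grown in 96-well plates and treated with compound for 48 hours. GI50 marks 50% less growth. TGI: total growth inhibition.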
# Tests used:
# Assay in all cases: inhibition of tumour cell growth, NCI panel, 48 h
# MCF7 breast = test system: MCF7 breast
# CAKI-1 renal = test system: CAKI-1 renal
# SK-MEL-2 melanoma = test system: SK-MEL-2 melanoma
# HT29 colon = test system: HT29 colon
# A498 renal = test system: A498 renal
# SR leukemia = test system: SR leukemia
# UACC-62 melanoma = test system: UACC-62 melanoma
# SF-539 CNS = test system: SF-539 CNS
# DU-145 prostate = test system: DU-145 prostate
# M14 melanoma = test system: M14 melanoma
SMILES,TGI (MCF7 breast) [µM],TGI (CAKI-1 renal) [µM],TGI (SK-MEL-2 melanoma) [µM],TGI (HT29 colon) [µM],TGI (A498 renal) [µM],TGI (SR leukemia) [µM],TGI (UACC-62 melanoma) [µM],TGI (SF-539 CNS) [µM],TGI (DU-145 prostate) [µM],TGI (M14 melanoma) [µM],GI50 (MCF7 breast) [µM],GI50 (CAKI-1 renal) [µM],GI50 (SK-MEL-2 melanoma) [µM],GI50 (HT29 colon) [µM],GI50 (A498 renal) [µM],GI50 (SR leukemia) [µM],GI50 (UACC-62 melanoma) [µM],GI50 (SF-539 CNS) [µM],GI50 (DU-145 prostate) [µM],GI50 (M14 melanoma) [µM]
c1ccc2nc3c(nc2c1)sc1ccccc13,> 100,30.2,> 100,> 100,78.2,> 100,79.3,30.9,> 100,> 100,,,,,,,,,,
O=S(=O)(Nc1ccc(F)cc1F)c1ccc(-c2cnc(C3CC3)o2)cc1,> 55.9,> 65.3,34.6,15.2,2.08,> 100,23.3,5.71,> 100,> 59.9,0.398,0.562,0.737,0.381,0.223,0.406,0.358,0.674,2.09,0.376
COc1cc(OC)c(/C=C/c2c3ccccc3cc[n+]2C)c(OC)c1,18.2,> 100,6.3,10.3,7.26,41.2,9.58,9.17,48.8,15.4,1.02,18.6,2.64,1.64,1,2,1.51,2.1,2.96,2.62
OCCCNc1nccc(-c2c(-c3ccc(F)cc3)nn3cc(C(F)(F)F)ccc23)n1,> 25,> 25,> 25,> 25,> 25,> 25,> 25,> 25,> 25,> 25,15.1,> 21.7,> 23.1,7.73,12.8,> 25,15.1,> 25,12.9,15.4
N=C(N)c1ccc2nc(-c3cc(CC(=O)N[C@@H](CC(=O)O)C(=O)O)cc(-c4cc(S(N)(=O)=O)ccc4O)c3O)[nH]c2c1,> 100,> 100,> 100,> 100,> 100,> 100,> 100,> 100,> 100,> 100,> 100,> 100,> 100,> 100,> 100,> 100,> 100,> 100,> 100,> 100
NC(=O)c1cc(S(=O)(=O)Nc2nnc(-c3ccccc3)c(-c3ccccc3)n2)c(SCc2ccccc2)cc1Cl,> 66.4,> 100,> 60.7,> 100,> 100,> 70.9,> 100,> 63.9,> 100,> 100,30.2,> 100,> 43.1,,> 88.6,42.2,71.1,> 44.3,> 100,> 100
CCOC(=O)c1c(NC(=O)c2cccc(C(F)(F)F)c2)sc2c(CN(C)C)c(O)ccc12,12.1,5.07,6.92,5.05,34.5,6.92,3.17,12.4,17.9,3.53,2.81,2.16,2.57,2.21,12.4,3.16,1.71,3.41,5.82,1.89
C#COc1cccc(Nc2c(C#N)cnc3ncc(NC(=O)CCl)cc23)c1,> 62.5,> 62.5,> 62.5,> 62.5,> 62.5,> 62.5,> 62.5,37.6,> 62.5,> 62.5,12.8,> 62.5,> 62.5,21.8,45.8,17.6,35.7,13.9,42.1,> 62.5
COc1ccc(-c2coc3c4c(ccc3c2=O)OCO4)cc1OC,> 100,> 100,> 100,> 100,> 100,> 100,> 100,> 100,> 100,> 100,,,,,,,,,,
CCn1sc2ccccc2c1=O,26.8,11.4,53.9,34,> 60,> 100,29.5,30.8,49.6,12,,,,,,,,,,
O=C(O)c1ccc(OCc2ccccc2)c(Cl)c1,> 100,> 100,> 100,> 100,> 100,> 100,> 100,> 100,> 100,> 100,,,,,,,,,,
CCN1C(=O)N(CC)C2C1NN=c1s/c(=C3\C(=O)N(CC(C)(C)C)c4ccccc43)c(=O)n12 (centres undefined),18.7,22.2,33.1,17,4.85,41.6,15.8,11.1,18.6,20.7,1.62,1.84,11.3,3.6,1.12,0.755,3.06,2.95,3.79,3.72
CCCCCOc1ccc(/C=N/Nc2cc(C)nc3ccc(Br)cc23)cc1,3.68,2.99,3.91,4.24,3.32,2.15,3.13,3.23,3.25,3.53,1.71,1.63,1.98,1.94,1.83,0.448,1.66,1.76,1.81,1.88
Cc1cc(C)c(NC(=O)c2sc3nc4c(cc3c2N)CN(Cc2ccccc2)CC4)c(C)c1,32.2,> 100,> 100,13.2,7.71,10.7,42.4,7.79,7.65,31.5,1.61,2.81,5.59,2.88,1.31,1.83,3.9,2.44,2.62,2.89
Cc1nc(-[n+]2nc(-c3ccncc3)nn2-c2ccccc2)sc1C,> 100,> 100,> 100,> 100,> 100,> 100,> 100,69.2,> 100,> 100,,,,,,,,,,
